Measured values taken from patent US20170166870A1, “HUMAN HEPATIC 3D CO-CULTURE MODEL AND USES THEREOF” (Vrije Universiteit Brussel, priority 2014, published 2017).
Like-named read-outs stand apart in the source and are kept apart here.

Columns and labels:
[1] = test system: hepatic stellate cells isolated from mice; test: Acute and chronic APAP liver injury model, HSC activation markers and collagen deposition; assay type: in vivo, mouse
Text: Male balbC and C57BL/6 mice were used for all experiments; animals were housed in a controlled environment with free access to chow and water. The experimental protocol was approved by the institutional Animal Care and Use Committee of Vrije Universiteit Brussel, permit number 14-212-2, and National Institutes of Health principles of laboratory animal care (NIH publication 86-23, revised 1995) were followed. Acute and chronic models for liver fibrosis were used on mice of age 7-8 weeks. Acute injury was induced by a single dose of Acetaminophen (APAP) of 50; 150; 300 or 500 mg APAP/kg weight. Chronic injury was induced by repeated injections of APAP twice per week for 4 weeks. Hepatic stellate cells were collected at the end of the treatment. Isolation of stellate cells was done using FACS, based on UV-positivity. After isolation cells were not cultured, but immediately used for mRNA analysis. […] For quantitative real-time polymerase chain reaction (qPCR), GoTaq QPCR Master Mix with BRYTE green (Promega, Madison, Wis.) was used, subjected to qPCR in a 7500 real time PCR system and analysed using System SDS software v2.0.5 (Applied Biosystems), using GAPDH for normalisation. Reliability of GAPDH as house-keeping gene was determined using Normfinder (Andersen et al., 2004; Cancer Res 64(15): 5245-5250) to produce the ΔCT values. […]

3D HepaRG = details: read-out: APAP EC50 values (±stdev), cited from earlier work
3D HepaRG/HSC co-culture [2] = test: Single and repeated exposure, cell viability (% ATP), serum-free medium; assay type: cell-based, human; details: Homo sapiens, HepaRG, serum-free medium
Description: Culture medium. Day 0 cells were resuspended in HepaRG thawing medium and from day 1 to 21 cells were kept in the HepaRG culture medium 0% DMSO, until day 8. For the repeated versus single compound exposure assays, on day 8, the HepaRG culture medium 0% DMSO was replaced by the Serum-free HepaRG maintenance medium described in Klein et. al. 2013 (HepaRG Induction/Toxicity medium, DMSO 0.5% (v/v), 2 μg/ml of epidermal growth factor and 10 μg/ml of hepatocyte growth factor) and kept in this medium until the end of culture.
Single and repeated exposure. For the single and repeated compound exposure cell spheroids (3D HepaRG/HSC, 3D HepaRG and 3D HSC) were exposed respectively on day 20 for 24 h or every second day from day 8 to day 21 in serum-free medium with no additional solvent. Cells were exposed to a range of 8 concentrations between 0.5 and 80 mM for APAP single-dose, 0.125 and 40 mM for APAP repeated-dose, 0.3 and 500 μM Allyl Alcohol (AA, Sigma-Aldrich), 1.9 and 1000 μM Methotrexate (MTX, Pfizer, NY, USA). For the recovery assay, on day 21, cells were washed using serum-free medium and kept for 3 extra days.
Cell viability assay was performed by measuring ATP production upon individual spheroid exposure to the different concentrations of the test compound. Cell spheroids were lysed individually for viability analysis using the Cell titer Glo kit (Promega) following the instructions of the manufacturer. Luminescence values were converted into percentage of ATP by comparison with controls and converted into dose-response curves using Prism 5 software.

3D HepaRG/HSC co-culture [3] = test: APAP toxicity assay, cell viability by ATP (Cell titer Glo); assay type: cell-based, human; details: Homo sapiens, 3D HepaRG/HSC, current study, 0% DMSO, read-out: APAP EC50 values (±stdev)
Description: APAP toxicity assay was performed in 3D HepaRG/co-culture as well as in 3D HepaRG monoculture. […] For some experiments the culture medium was supplemented with 2.5 mM valproic acid (VPA sodium salt, Sigma-Aldrich) or with cytokine mixture (Raicevic et al.,2012)-interleukin (IL)-1β 25 ng/mL (Peprotech, Rocky Hill, N.J., USA), interferon (IFN)-γ 10^3 U/mL, tumor necrosis factor (TNF)-a 50 ng/mL, and IFN-α 3·10^3 U/mL (all from Prospec, Inc., East Brunswick, N.J., USA). For the recovery assay, at the end of APAP incubation, cells were washed using HepaRG culture 0% DMSO medium and kept in the same medium for 3 more days.
At the end of the incubation period, 5 spheroids per condition were pooled and lysed for RNA analyses, while the remaining spheroids per condition were lysed individually for viability analysis using the Cell titer Glo kit (Promega) for ATP measurements following the instructions of the manufacturer.

In the case of `CC(=O)Nc1ccc(O)cc1` [APAP, Acetaminophen], the “activation marker gene expression in isolated HSC” value ([1]; acute and chronic exposure, doses equal or higher than 300 mg/kg weight) is given as “significantly increase of the activation marker gene expression”, the “fibrosis profile at the protein level (collagen)” value ([1]; chronic exposure (4 weeks)) is given as “deposition of collagen around the portal area with septa formation” and the EC50 (3D HepaRG; Day 6/7, Gunness et al. 2013, 2% DMSO) is given as 2.7 ± 7.14 mM. The EC50 (3D HepaRG; Day 21/22, Gunness et al. 2013, 2% DMSO) was 10.1 ± 9.9 mM, the EC50 (3D HepaRG/HSC co-culture [2]; repeated exposure, day 8 to day 21) was 2.25 ± 0.35 mM and the EC50 (3D HepaRG/HSC co-culture [2]; single exposure, 24 h on day 20) was 10.4 ± 2.3 mM. The EC50 (3D HepaRG/HSC co-culture [3]; 144 h, Day 6/7) was 10 ± 1.09 mM and the EC50 (3D HepaRG/HSC co-culture [3]; 504 h, Day 21/22) was 8 ± 4.17 mM.
